Among the data in US9637453B2, “3-spirocyclic-6-hydroxamic acid tetralins as HDAC inhibitors” (Forma Therapeutics, Inc., priority 2015, dated 2017) are IC50 values, retold here.

The target in assay [1] is T1, Full length human recombinant HDAC6 (Homo sapiens, UniProt Q9UBN7).
T1 construct: Full length human recombinant HDAC6 and HDAC11 proteins were expressed in baculoviral system
T1 sequence (Q9UBN7 1-1215): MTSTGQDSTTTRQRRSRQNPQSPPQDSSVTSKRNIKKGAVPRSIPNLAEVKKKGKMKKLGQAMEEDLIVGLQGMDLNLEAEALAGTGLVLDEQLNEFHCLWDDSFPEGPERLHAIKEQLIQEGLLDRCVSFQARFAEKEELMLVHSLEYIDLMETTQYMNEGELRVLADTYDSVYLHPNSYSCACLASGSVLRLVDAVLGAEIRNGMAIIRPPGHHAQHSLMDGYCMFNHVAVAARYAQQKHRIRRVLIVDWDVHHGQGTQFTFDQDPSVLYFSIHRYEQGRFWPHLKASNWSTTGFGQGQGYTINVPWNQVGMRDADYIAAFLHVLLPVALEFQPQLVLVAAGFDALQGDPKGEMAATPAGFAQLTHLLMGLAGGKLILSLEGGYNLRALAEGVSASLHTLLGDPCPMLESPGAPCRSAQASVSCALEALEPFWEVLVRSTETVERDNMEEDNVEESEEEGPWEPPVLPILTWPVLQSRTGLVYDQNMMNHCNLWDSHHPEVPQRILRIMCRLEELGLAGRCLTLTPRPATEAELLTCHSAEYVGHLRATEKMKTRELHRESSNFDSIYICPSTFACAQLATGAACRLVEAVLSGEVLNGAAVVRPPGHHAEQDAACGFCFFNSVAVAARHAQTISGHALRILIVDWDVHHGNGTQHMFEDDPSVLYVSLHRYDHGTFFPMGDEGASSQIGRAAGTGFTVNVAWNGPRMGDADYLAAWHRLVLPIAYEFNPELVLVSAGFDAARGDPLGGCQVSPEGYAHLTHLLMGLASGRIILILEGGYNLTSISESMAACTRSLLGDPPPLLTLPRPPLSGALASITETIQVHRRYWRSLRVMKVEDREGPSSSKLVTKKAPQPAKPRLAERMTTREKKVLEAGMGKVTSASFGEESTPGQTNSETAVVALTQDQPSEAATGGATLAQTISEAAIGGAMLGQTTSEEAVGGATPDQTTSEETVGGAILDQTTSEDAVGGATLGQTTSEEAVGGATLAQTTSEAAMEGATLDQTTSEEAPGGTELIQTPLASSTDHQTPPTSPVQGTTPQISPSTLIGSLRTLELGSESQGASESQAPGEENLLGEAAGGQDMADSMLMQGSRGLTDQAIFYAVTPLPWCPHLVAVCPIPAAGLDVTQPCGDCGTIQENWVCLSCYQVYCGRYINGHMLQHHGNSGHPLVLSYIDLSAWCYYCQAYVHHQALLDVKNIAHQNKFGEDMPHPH
Put plainly: In vitro histone deacetylase assay, enzymatic HDAC6 (electrophoretic mobility shift assay). Conditions: 1 nM HDAC6; 2 μM peptide substrate FAM-RHKK(Ac)—NH2; 25° C.; 12 concentrations; read-out: HDAC6 Activity Range (IC50). Format: biochemical. The method, boiled down:
(§1)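 Baculovirus-expressed full-length enzymes (HDAC6 1 nM, FAM-RHKK(Ac)-NH2; HDAC11 10 nM, FAM-RHKK(tri-fluor-Ac)-NH2), 2 μM substrate, HEPES pH 7.5, 25°C, 12-point 3× dilutions. Product/substrate separated by microfluidic mobility shift after SDS quench; IC50 from 4-parameter fit, reported as +/++/+++ bins.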

Assay [2] has as its target T2, Full length human recombinant HDAC11 (Homo sapiens, UniProt Q96DB2).
T2 construct: Full length human recombinant HDAC6 and HDAC11 proteins were expressed in baculoviral system
T2 sequence (Q96DB2 1-347): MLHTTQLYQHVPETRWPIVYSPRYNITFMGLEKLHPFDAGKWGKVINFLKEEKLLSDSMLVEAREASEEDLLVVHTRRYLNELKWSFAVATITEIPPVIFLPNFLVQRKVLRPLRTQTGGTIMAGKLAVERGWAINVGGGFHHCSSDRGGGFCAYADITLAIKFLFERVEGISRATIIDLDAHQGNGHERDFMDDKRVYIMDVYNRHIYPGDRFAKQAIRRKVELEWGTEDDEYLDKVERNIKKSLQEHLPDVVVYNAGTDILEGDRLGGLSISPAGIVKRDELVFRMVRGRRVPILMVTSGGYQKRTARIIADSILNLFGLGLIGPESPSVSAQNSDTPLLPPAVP
Nature of the assay: In vitro histone deacetylase assay, enzymatic HDAC11 (electrophoretic mobility shift assay). The assay is classed as biochemical. As to conditions: 10 nM HDAC11; 2 μM peptide substrate FAM-RHKK(tri-fluor-Ac)—NH2; 25° C.; 12 concentrations; read-out: HDAC11 Activity Range (IC50). The method, boiled down: as §1
A general note: In EMSA bound probe runs differently from free probe, usually more slowly.

In general, IC50 refers to the point on the concentration scale where inhibition reaches its midpoint. For `O=C(NO)c1ccc2c(c1)C[C@@]1(CC2)CCN(Cc2ccc(F)cc2)C1=O` [Compound I-41, (S)-1′-(4-fluorobenzyl)-N-hydroxy-2′-oxo-3,4-dihydro-1H-spiro[naphthalene-2,3′-pyrrolidine]-7-carboxamide], the IC50 is at most 100 nM in assay [1] and above 500 nM in assay [2].

On to `O=C(NO)c1ccc2c(c1)C[C@@]1(CC2)CC(=O)N(C2CC2)C1` [Compound I-141, (S)-1′-cyclopropyl-N-hydroxy-5′-oxo-3,4-dihydro-1H-spiro[naphthalene-2,3′-pyrrolidine]-7-carboxamide], for which the IC50 in assay [1] is at most 100 nM; in assay [2], above 500 nM.

Consider `O=C(NO)c1ccc2c(c1)C[C@]1(CC2)CCN(C/C=C/c2ccccc2)C1=O` [Compound I-86, (R)-1′-cinnamyl-N-hydroxy-2′-oxo-3,4-dihydro-H-spiro[naphthalene-2,3′-pyrrolidine]-7-carboxamide], for which the half-maximal inhibitory concentration (IC50) in assay [1] and in assay [2] was at most 100 nM each time.

Turning to `O=C(NO)c1ccc2c(c1)C[C@@]1(CC2)CCN(Cc2ccccc2C(F)(F)F)C1=O` [Compound I-60, (S)—N-hydroxy-2′-oxo-1′-(2-(trifluoromethyl)benzyl)-3,4-dihydro-1H-spiro[naphthalene-2,3′-pyrrolidine]-7-carboxamide], the half-inhibitory concentration (IC50) in assay [1] was at most 100 nM; in assay [2] it was above 500 nM.

With `O=C(NO)c1ccc2c(c1)C[C@@]1(CC2)CCN(Cc2ccc3nonc3c2)C1=O` [Compound I-63, (S)-1′-(benzo[c][1,2,5]oxadiazol-5-ylmethyl)-N-hydroxy-2′-oxo-3,4-dihydro-1H-spiro[naphthalene-2,3′-pyrrolidine]-7-carboxamide], the results for the half-maximal inhibitory concentration (IC50) in assay [1] and in assay [2] were at most 100 nM and above 500 nM, respectively.

Regarding `COc1ccccc1N1CC[C@@]2(CCc3ccc(C(=O)NO)cc3C2)C1=O` [Compound I-114, (S)—N-hydroxy-1′-(2-methoxyphenyl)-2′-oxo-3,4-dihydro-1H-spiro[naphthalene-2,3′-pyrrolidine]-7-carboxamide], the concentration for half-maximal inhibition (IC50) in assay [1] was at most 100 nM; in assay [2] it was above 500 nM.

Turning to `CC(C)N1C[C@]2(CCc3ccc(C(=O)NO)cc3C2)CC1=O` [Compound I-140, (S)—N-hydroxy-1′-isopropyl-5′-oxo-3,4-dihydro-1H-spiro[naphthalene-2,3′-pyrrolidine]-7-carboxamide], the IC50 is at most 100 nM in assay [1] and above 500 nM in assay [2].

Consider `COc1cccc(CN2CCC3(CCc4ccc(C(=O)NO)cc4C3)C2)c1` (centres unmarked) [Compound I-14, N-hydroxy-1′-(3-methoxybenzyl)-3,4-dihydro-1H-spiro[naphthalene-2,3′-pyrrolidine]-7-carboxamide], for which the IC50 in assay [1] was at most 100 nM; in assay [2], above 500 nM.

For `O=C(NO)c1ccc2c(c1)OC1(CC2)CCN(S(=O)(=O)C2CCCCC2)CC1` [II-3, 1′-(cyclohexylsulfonyl)-N-hydroxyspiro[chromane-2,4′-piperidine]-7-carboxamide], the IC50 in assay [1] and in assay [2] was at most 100 nM throughout.

Regarding `O=C(NO)c1ccc2c(c1)CC1(CC2)CCN(CC2CCCCC2)C1=O` (centres unmarked) [Compound I-23, 1′-(cyclohexylmethyl)-N-hydroxy-2′-oxo-3,4-dihydro-1H-spiro[naphthalene-2,3′-pyrrolidine]-7-carboxamide], the results for the IC50 in assay [1] and in assay [2] were at most 100 nM and 100 to 500 nM, respectively.

Turning to `O=C(NO)c1ccc2c(c1)CC1(CC2)CCN(Cc2ccc(Cl)c(C(F)(F)F)c2)C1=O` (centres unmarked) [Compound I-27, 1′-(4-chloro-3-(trifluoromethyl)benzyl)-N-hydroxy-2′-oxo-3,4-dihydro-1H-spiro[naphthalene-2,3′-pyrrolidine]-7-carboxamide], the IC50 in assay [1] and in assay [2] was at most 100 nM each time.

Consider `O=C(NO)c1ccc2c(c1)C[C@@]1(CC2)CCN(CC2CCC2)C1=O` [Compound I-53, (S)-1′-(cyclobutylmethyl)-N-hydroxy-2′-oxo-3,4-dihydro-1H-spiro[naphthalene-2,3′-pyrrolidine]-7-carboxamide], for which the IC50 in assay [1] was at most 100 nM; in assay [2], above 500 nM.

Consider `O=C(NO)c1ccc2c(c1)C[C@]1(CC2)CCN(Cc2ccccc2)C1=O` [Compound I-36, (R)-1′-benzyl-N-hydroxy-2′-oxo-3,4-dihydro-1H-spiro[naphthalene-2,3′-pyrrolidine]-7-carboxamide], for which the IC50 was at most 100 nM in assay [1] and 100 to 500 nM in assay [2].

On to `O=C(NO)c1ccc2c(c1)C[C@@]1(CC2)CCN(Cc2cccc(F)c2)C1=O` [Compound I-72, (S)-1′-(3-fluorobenzyl)-N-hydroxy-2′-oxo-3,4-dihydro-1H-spiro[naphthalene-2,3′-pyrrolidine]-7-carboxamide], for which the IC50 in assay [1] is at most 100 nM; in assay [2] it was above 500 nM.

On to `COc1ccccc1CN1CC[C@@]2(CCc3ccc(C(=O)NO)cc3C2)C1=O` [Compound I-65, (S)—N-hydroxy-1′-(2-methoxybenzyl)-2′-oxo-3,4-dihydro-1H-spiro[naphthalene-2,3′-pyrrolidine]-7-carboxamide], for which the IC50 in assay [1] was at most 100 nM; in assay [2] it was above 500 nM.

`CC(C)N1CCC2(CCc3ccc(C(=O)NO)cc3C2)C1` (centres unmarked) [Compound I-11, N-hydroxy-1′-isopropyl-3,4-dihydro-1H-spiro[naphthalene-2,3′-pyrrolidine]-7-carboxamide]: the IC50 in assay [1] was 100 to 500 nM; in assay [2], above 500 nM.

In the case of `O=C(NO)c1ccc2c(c1)C[C@@]1(CC2)CCN(Cc2ccccc2Cl)C1=O` [Compound I-61, (S)-1′-(2-chlorobenzyl)-N-hydroxy-2′-oxo-3,4-dihydro-1H-spiro[naphthalene-2,3′-pyrrolidine]-7-carboxamide], the figures for the IC50 in assay [1] and in assay [2] were at most 100 nM and above 500 nM, respectively.

In the case of `O=C(NO)c1ccc2c(c1)C[C@]1(CC2)CCN(c2cccc(OCCN3CCOCC3)c2)C1=O` [Compound I-117, (R)—N-hydroxy-1′-(3-(2-morpholinoethoxy)phenyl)-2′-oxo-3,4-dihydro-1H-spiro[naphthalene-2,3′-pyrrolidine]-7-carboxamide], the IC50 in assay [1] is at most 100 nM; in assay [2], above 500 nM.

For `CN(C)CCc1ccc(N2CC[C@@]3(CCc4ccc(C(=O)NO)cc4C3)C2=O)cc1` [Compound I-119, (S)-1′-(4-(2-(dimethylamino)ethyl)phenyl)-N-hydroxy-2′-oxo-3,4-dihydro-1H-spiro[naphthalene-2,3′-pyrrolidine]-7-carboxamide], the half-maximal inhibitory concentration (IC50) in assay [1] is at most 100 nM; in assay [2], above 500 nM.

Turning to `CN1C[C@]2(CCc3ccc(C(=O)NO)cc3C2)CC1=O` [Compound I-131, (S)—N-hydroxy-1′-methyl-5′-oxo-3,4-dihydro-1H-spiro[naphthalene-2,3′-pyrrolidine]-7-carboxamide], the IC50 in assay [1] is at most 100 nM; in assay [2], above 500 nM.

As to `O=C(NO)c1ccc2c(c1)C[C@]1(CC2)CCN(CCCO)C1=O` [Compound I-80, (R)—N-hydroxy-1′-(3-hydroxypropyl)-2′-oxo-3,4-dihydro-1H-spiro[naphthalene-2,3′-pyrrolidine]-7-carboxamide], the values for the half-inhibitory concentration (IC50) in assay [1] and in assay [2] were at most 100 nM and above 500 nM, respectively.

Consider `CN1C[C@@]2(CCc3ccc(C(=O)NO)cc3C2)CC1=O` [Compound I-130, (R)—N-hydroxy-1′-methyl-5′-oxo-3,4-dihydro-1H-spiro[naphthalene-2,3′-pyrrolidine]-7-carboxamide], for which the half-maximal inhibitory concentration (IC50) in assay [1] was at most 100 nM; in assay [2] it was above 500 nM.
